Measurements from PMC12480751, “A quantitative high-throughput screening pipeline to identify small molecule inhibitors of Chikungunya nsP2 protease” (Scientific Reports, 2025).

Assays:
CHIKV nsP2pro [1] = molecular target: T1, CHIKV nsP2pro (Chikungunya virus, UniProt Q8JUX6); assay: FRET-based nsP2pro proteolytic assay with peptide 2 (nsp3/4 site), 1,536-well qHTS; format: biochemical
full-length nsP2 = molecular target: T2, full-length nsP2 (Chikungunya virus, UniProt Q8JUX6, C1333A); assay: FRET-based full-length nsP2 proteolytic assay with peptide 2; format: biochemical; settings: full-length nsP2 and peptide 2; read-out: IC50, inhibition of nsp3/4 cleavage by full-length enzyme
T2 sequence (Q8JUX6 536-1333 C1333A): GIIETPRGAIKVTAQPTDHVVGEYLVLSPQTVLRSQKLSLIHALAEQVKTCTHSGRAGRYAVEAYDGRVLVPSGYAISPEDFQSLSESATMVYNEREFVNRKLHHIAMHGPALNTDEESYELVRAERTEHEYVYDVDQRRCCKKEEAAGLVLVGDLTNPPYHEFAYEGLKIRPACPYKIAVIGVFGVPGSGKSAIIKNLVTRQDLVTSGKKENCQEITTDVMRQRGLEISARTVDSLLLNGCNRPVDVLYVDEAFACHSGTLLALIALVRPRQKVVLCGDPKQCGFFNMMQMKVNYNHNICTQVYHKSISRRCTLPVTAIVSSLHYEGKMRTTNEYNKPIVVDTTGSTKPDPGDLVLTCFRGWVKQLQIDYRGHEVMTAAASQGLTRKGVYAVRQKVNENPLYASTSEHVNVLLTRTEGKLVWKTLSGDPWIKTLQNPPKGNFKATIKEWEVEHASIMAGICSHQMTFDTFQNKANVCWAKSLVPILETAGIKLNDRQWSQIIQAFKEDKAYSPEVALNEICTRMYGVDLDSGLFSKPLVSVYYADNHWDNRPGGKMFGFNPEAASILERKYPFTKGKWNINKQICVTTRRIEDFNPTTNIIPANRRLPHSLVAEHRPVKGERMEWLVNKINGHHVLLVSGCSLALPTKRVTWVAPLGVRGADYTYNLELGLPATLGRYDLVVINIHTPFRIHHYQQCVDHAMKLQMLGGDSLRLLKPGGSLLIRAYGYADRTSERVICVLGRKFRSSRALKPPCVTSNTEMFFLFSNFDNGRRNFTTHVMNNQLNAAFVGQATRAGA
Experimental: (§1) To gain further insight on their therapeutic potential, we investigated whether confirmed hits inhibit proteolytic activity in the context of full-length nsP2 protein rather than isolated protease domain[13]. To test the set of confirmed inhibitors, we chose peptide 2 substrate and full-length enzyme concentrations of 1 μM and 150 nM, respectively. Compound activity correlated well between nsP2pro and full-length enzyme (Fig. 2A). Additionally, we tested whether hits inhibit proteolysis of the nsP2/3 site.
All reactions were incubated at room temperature (RT).
Two point five μM peptide 2 substrate and 150 nM nsP2pro were selected to run the assay into 1536-well plate format. ZnAc was used as a positive control in the assay (50 µM). […] For primary screens, compounds were tested at 7 concentrations, 1:3 dilution points ranging from 25 µM to 34 nM. […] Four µL nsP2pro enzyme mix in assay buffer (10 mM Tris⋅HCl pH 8.0 with 0.01% Tween 20) was dispensed into the plate using a BioRAPTR FRD liquid dispenser (Beckman Coulter). […] After 1 h, plates were immediately read on a ViewLux high-throughput CCD imager (Exposure = 10 s, Gain = High, Speed = Slow, Binning = 2X). The above assay was also incorporated in the NCATS HTS facility, which allowed for robotic liquid and compound dispensing, microplate handling, and fluorescence reading. […]

CHIKV nsP2pro [2] = molecular target: T1, CHIKV nsP2pro; assay: FRET-based nsP2pro proteolytic assay with peptide 3 (nsp2/3 site); format: biochemical; settings: nsP2pro and peptide 3; read-out: IC50, inhibition of cleavage of nsp2/3 peptide by nsp2pro
Experimental: as §1
Two point five μM peptide 2 substrate and 150 nM nsP2pro were selected to run the assay into 1536-well plate format. ZnAc was used as a positive control in the assay (50 µM). […] For primary screens, compounds were tested at 7 concentrations, 1:3 dilution points ranging from 25 µM to 34 nM. […] Four µL nsP2pro enzyme mix in assay buffer (10 mM Tris⋅HCl pH 8.0 with 0.01% Tween 20) was dispensed into the plate using a BioRAPTR FRD liquid dispenser (Beckman Coulter). The plate was incubated at RT (protected from light) for 15 min before addition of 4 µL substrate in assay buffer. After 1 h, plates were immediately read on a ViewLux high-throughput CCD imager (Exposure = 10 s, Gain = High, Speed = Slow, Binning = 2X). The above assay was also incorporated in the NCATS HTS facility, which allowed for robotic liquid and compound dispensing, microplate handling, and fluorescence reading. […]

nsP2 protease = molecular target: T3, nsP2 protease (Chikungunya virus, UniProt Q8JUX6); assay: cell-based; format: cell-based
T3 construct: expressed in transfected cells; host or cells: HEK293T (the results text says HEK293), transient co-transfection in pcDNA3.1(+)
T3 sequence (Q8JUX6 755-1333 limits assumed): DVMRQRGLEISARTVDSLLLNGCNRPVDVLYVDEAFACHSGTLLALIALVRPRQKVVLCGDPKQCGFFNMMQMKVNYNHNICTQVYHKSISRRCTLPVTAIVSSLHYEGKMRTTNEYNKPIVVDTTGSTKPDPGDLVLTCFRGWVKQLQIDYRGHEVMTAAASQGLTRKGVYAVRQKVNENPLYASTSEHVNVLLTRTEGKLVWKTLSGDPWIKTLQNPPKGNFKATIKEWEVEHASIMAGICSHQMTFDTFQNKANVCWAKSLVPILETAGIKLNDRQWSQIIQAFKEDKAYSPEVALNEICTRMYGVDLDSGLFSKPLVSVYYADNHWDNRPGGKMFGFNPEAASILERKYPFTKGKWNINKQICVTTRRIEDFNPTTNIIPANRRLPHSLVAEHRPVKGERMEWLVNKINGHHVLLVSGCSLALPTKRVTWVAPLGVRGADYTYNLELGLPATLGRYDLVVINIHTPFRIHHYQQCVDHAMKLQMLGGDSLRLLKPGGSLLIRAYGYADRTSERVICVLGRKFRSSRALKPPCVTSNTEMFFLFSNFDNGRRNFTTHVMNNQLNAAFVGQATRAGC

CHIKV = test system: CHIKV; design: method as in PMID 30018455; settings: cited from earlier work
SNB19 cells = assay: CellTiter-Glo cell viability assay of SNB19 cells; format: cell-based, human; settings: 48 h
Experimental: Cells were harvested in growth media and dispensed (5 µL /1,000 cells/well) onto 1536-well white plates (Aurora #EWB041000A) using a Multidrop Combi. Control and test compounds were added (25 nL) using an Echo 650 liquid handler. Plates were incubated for 48 h at 37 °C and 5% CO2 and then equilibrated to room temperature prior to addition of 4 µL /well of CellTiter-Glo (Promega) using a Multidrop Combi. Plates were subsequently incubated for 15 min at room temperature and centrifuged for 1 min at 1000 rpm. Luminescence was read on a ViewLux imager equipped with clear filters.

| Structure (SMILES) | IC50 (CHIKV nsP2pro [1]; nsP2pro and peptide 2, read-out: IC50, inhibition of nsp3/4 cleavage by nsP2pro) | IC50 (full-length nsP2) | IC50 (CHIKV nsP2pro [2]) | effect on Nluc reporter signal in cellular nsp2 proteolytic assay (nsP2 protease) | concentrations effective in preventing CHIKV viral infection (CHIKV) | Enzymatic % Efficacy (CHIKV nsP2pro [1]; nsP2pro biochemical assay, 13 cell-active hits) | IC50 (CHIKV nsP2pro [1]; nsP2pro biochemical assay, 13 cell-active hits, read-out: Enzymatic IC50) | Cell-based % Efficacy (nsP2 protease) | AC50 (nsP2 protease; read-out: Cell-based AC50) | CC50 (SNB19 cells) |
| --- | --- | --- | --- | --- | --- | --- | --- | --- | --- | --- |
| CC(=O)[O-].CC(=O)[O-].[Zn+2] [ZnAc, Zinc acetate] | 0.192 ± 0.012 µM | 0.137 ± 0.011 µM | 0.685 ± 0.077 µM | did not increase Nluc reporter signal | higher than 60 µM |  |  |  |  |  |
| CC(C)n1nc(C#Cc2ccccc2)c2c(N)ncnc21 [SPP 86] |  |  |  |  |  | -114.8% | 8 µM | 146.3% | 18.3 µM | 16.4 µM |
